# Target: MAGE-A11:PCF11 (Homo sapiens (Human), UniProt P43364)
# Test: TR-FRET single point screening at 15 μM
# Assay type: binding
# Design: unit not given here
# Details: single point TR-FRET screening at 15 μM against MAGE-A11:PCF11
# In short: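 Competition TR-FRET: compounds at final 15 μM mixed with 200 nM FAM-PCF11_4, 5 nM GST-MAGEA11 and 5 nM Tb-anti-GST in Tris pH 7.5/MgCl2/BSA/DTT buffer, room temperature, 90 min. Emission ratio 520/490 nm (340 nm excitation) expressed as % inhibition relative to positive and negative controls.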
# Sequence of MAGE-A11:PCF11 (P43364 218-429): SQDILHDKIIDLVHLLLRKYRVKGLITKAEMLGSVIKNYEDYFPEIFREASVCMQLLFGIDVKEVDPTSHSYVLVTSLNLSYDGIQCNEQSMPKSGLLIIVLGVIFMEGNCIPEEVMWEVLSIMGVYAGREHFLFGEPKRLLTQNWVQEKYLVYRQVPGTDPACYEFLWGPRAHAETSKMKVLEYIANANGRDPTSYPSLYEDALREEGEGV
row,SMILES,TR-FRET signal
1,CCCN(CCCNc1c2ccc(Cl)cc2nc2ccc(OC)cc12)CCC(C)(C)C [SJ000522983],−233.7
2,O=S(=O)(c1ccccc1)c1cnc2ccc(Cl)cc2c1N1CCN(c2ccccc2)CC1 [SJ000083977],−15.7
3,CCCN(CCCNc1c2ccc(Cl)cc2nc2ccc(OC)cc12)Cc1ccccn1 [SJ000520919],−146.2
4,O=[N+]([O-])c1ccc(CN(CCCCNc2ccnc3cc(Cl)ccc23)Cc2ccccc2)cc1 [SJ000361202],15.25
5,CCN1CCN(c2c(S(=O)(=O)c3ccc(Cl)cc3)cnc3ccccc23)CC1 [SJ000247367],−2.261
6,COc1ccc2nc3cc(Cl)ccc3c(NCCCNCC3CC3)c2c1 [SJ000361087],−502.4
7,CC(Nc1c2ccccc2nc2ccccc12)C(=O)NC(CC(N)=O)C(=O)O (stereo not drawn) [SJ000016433],22.71
8,CCc1ccc(CN(CCCCNc2ccnc3cc(Cl)ccc23)Cc2ccccc2)cc1 [SJ000520443],29.91
9,CCOC(=O)c1cnc2c(C)cc(Cl)cc2c1NCCN1CCOCC1 [SJ000129560],4.96
10,Cc1ccc(S(=O)(=O)c2cnc3ccccc3c2N2CCN(c3ccc(F)cc3)CC2)cc1C [SJ000117062],−54.86
11,Clc1ccc2c(NCCCCN(Cc3ccccc3)Cc3csc4ccccc34)ccnc2c1 [SJ000520446],33.98
12,COc1ccc2nc3cc(Cl)ccc3c(NCCCNCc3ccc(C)s3)c2c1 [SJ000523029],−304.8
13,Cc1ccc(C)c(CN(CCCCNc2ccnc3cc(Cl)ccc23)Cc2ccccc2)c1 [SJ000361209],32.65
14,CCc1ccc2ncc(S(=O)(=O)c3ccc(C)c(C)c3)c(N3CCN(CC)CC3)c2c1 [SJ000247334],−4.712
15,CCCN(CCCNc1c2ccc(Cl)cc2nc2ccc(OC)cc12)Cc1scnc1C [SJ000522976],−127
16,CCOc1ccc2ncc(S(=O)(=O)c3ccc(C)c(C)c3)c(N3CCN(CC)CC3)c2c1 [SJ000247355],−13.39
17,CCOc1ccc2ncc(C(=O)c3ccc(OC)cc3)c(N3CCN(CC)CC3)c2c1 [SJ000247243],−9.084
18,COc1ccc2ncc(S(=O)(=O)c3ccccc3)c(N3CCN(C)CC3)c2c1 [SJ000083947],−2.094
19,COc1ccccc1N1CCN(c2c(S(=O)(=O)c3ccc(C)cc3)cnc3ccc(C)cc23)CC1 [SJ000117066],−92.89
20,O=C(CN1CCN(C(=O)c2ccccc2)CC1)Nc1c2c(nc3ccccc13)N(c1cccc(Cl)c1)CC2 [SJ000111683],−264.3
21,CCCCN(CCC)CCCNc1c2ccc(Cl)cc2nc2ccc(OC)cc12 [SJ000522971],−286.9
22,Cc1csc(CN(CCCCNc2ccnc3cc(Cl)ccc23)Cc2ccccc2)n1 [SJ000520456],−12.86

row,SMILES,TR-FRET signal
1,CCOC(=O)c1cnc2c(C)cc(C)cc2c1NCCN1CCOCC1 [SJ000172983],8.869
2,Cc1ccsc1CN(CCCCNc1ccnc2cc(Cl)ccc12)Cc1ccccc1 [SJ000361191],23.44
3,CCCN(CCCNc1c2ccc(Cl)cc2nc2ccc(OC)cc12)Cc1ccc(C(=O)OC)cc1 [SJ000523018],−118.6
4,Clc1ccc2c(N3CCN(CCCN4CCN(c5ccnc6cc(Cl)ccc56)CC4)CC3)ccnc2c1 [SJ000518980],−2.989
5,O=C(O)c1ccccc1CN1CCC(Nc2ccnc3cc(Cl)ccc23)CC1 [SJ000523098],−2.194
6,Cc1cc(C)c(CN2CCC(Nc3ccnc4cc(Cl)ccc34)CC2)c(C)c1 [SJ000523084],11.75
7,CCc1ccc(S(=O)(=O)c2cnc3ccccc3c2N2CCN(c3ccccc3OC)CC2)cc1 [SJ000117069],−47.44
8,COc1ccc(F)c(CN(CCCCNc2ccnc3cc(Cl)ccc23)Cc2ccccc2)c1 [SJ000520441],14.55
9,CCCN(CCCNc1c2ccc(Cl)cc2nc2ccc(OC)cc12)Cc1ccc2c(c1)OCO2 [SJ000520940],−193.5
10,CCc1ccc(CNCCCNc2c3ccc(Cl)cc3nc3ccc(OC)cc23)cc1 [SJ000521005],−390.4
11,COc1ccc(N2CCN(c3c(S(=O)(=O)c4ccc(Cl)cc4)cnc4ccc(C)cc34)CC2)cc1 [SJ000117075],−3.122
12,Cc1ccc(S(=O)(=O)c2cnc3ccccc3c2N2CCN(C)CC2)cc1 [SJ000247268],−13.59
13,Clc1ccc2c(NCCCCN(Cc3ccccc3)Cc3ccoc3)ccnc2c1 [SJ000312685],14.9
14,CCCN(CCCNc1c2ccc(Cl)cc2nc2ccc(OC)cc12)Cc1ccc(-c2cccc(Cl)c2)o1 [SJ000523020],−169.7
15,Cc1ccc(S(=O)(=O)c2cnc3ccc(F)cc3c2N2CCN(c3ccccc3)CC2)cc1C [SJ000117052],−16.9
16,Fc1ccccc1CN1CCC(Nc2ccnc3cc(Cl)ccc23)CC1 [SJ000523091],−0.9977
17,CCOC(=O)c1cnc2c(CC)cccc2c1NCCN1CCOCC1 [SJ000279714],−6.103
18,COc1ccc2nc3cc(Cl)ccc3c(NCCCNCc3cc(Br)cs3)c2c1 [SJ000520996],−287.6
19,CCOC(=O)c1cnc2c(C)c(C)ccc2c1NCCN(C)C [SJ000134078],8.538
20,CCCN(CCCCNc1ccnc2cc(Cl)ccc12)Cc1c(F)cccc1OC [SJ000311203],6.844
21,COC(=O)c1ccc(CNCCCNc2c3ccc(Cl)cc3nc3ccc(OC)cc23)cc1 [SJ000522957],−133

# Same assay, conditions: single point TR-FRET screening of quinoline compounds against MAGE-A11:PCF11; 15 μM
row,SMILES,TR-FRET signal
1,COc1ccc2nc3cc(Cl)ccc3c(NCCCNCc3c4ccccc4cc4ccccc34)c2c1 [SJ000361099],−3.728
2,Cc1c(CNCCCNc2ccnc3cc(Cl)ccc23)c(=O)n(-c2ccccc2)n1C [SJ000523058],5.584
3,CCOC(=O)c1cnc2ccc(C(=O)OC)cc2c1NCCCN1CCOCC1 [SJ000279665],10.71
4,COc1ccccc1CN(CCCNc1ccnc2cc(Cl)ccc12)Cc1ccccc1 [SJ000522722],4.43
5,CSC(C)CCNCCCNc1ccnc2cc(Cl)ccc12 (stereo not drawn) [SJ000361121],13.5
6,CCCN(CCCNc1ccnc2cc(Cl)ccc12)CC(CC)CC [SJ000522752],14.17
7,CCOC(=O)c1cnc2c(OC)cccc2c1NCCCN1CCOCC1 [SJ000180455],3.635
8,CCCN(CCCNc1c2ccc(Cl)cc2nc2ccc(OC)cc12)Cc1nc2ccccc2s1 [SJ000522969],−68.77
9,CCCCCCN(CCC)CCCNc1ccnc2cc(Cl)ccc12 [SJ000523048],1.317
10,Fc1ccc(CN(CCCNc2ccnc3cc(Cl)ccc23)Cc2ccccc2)cc1 [SJ000522721],18.08
11,Fc1ccc(Oc2ccc3c(NCCCNCc4ccco4)ccnc3c2)cc1 [SJ000311222],9.365
12,CN(C)c1ccc(CN(CCCNc2ccnc3cc(Cl)ccc23)Cc2ccccc2)cc1 [SJ000522741],14.76
13,COc1cc(Cc2ccc3c(NCCCNCc4ccco4)ccnc3c2)cc(OC)c1 [SJ000311310],23.79
14,CCCN(CCCNc1ccnc2cc(C(F)(F)F)ccc12)CC(CC)CC [SJ000361269],30.66
15,Fc1ccc(-c2ccc3c(NCCCNCc4ccco4)ccnc3c2)cc1 [SJ000311238],27.43
16,CCCN(CCCNc1ccnc2cc(Cl)ccc12)Cc1cccc(C(F)(F)F)c1 [SJ000523013],17.48
17,CCCN(CCCNc1ccnc2cc(Cl)ccc12)Cc1ccc(C)o1 [SJ000357437],20.15
18,Clc1ccc2c(NCCCNCc3cc4ccccc4s3)ccnc2c1 [SJ000521032],30.13

row,SMILES,TR-FRET signal
1,COc1ccc2nc3cc(Cl)ccc3c(NCCCNCc3cccc(OC(F)(F)F)c3)c2c1 [SJ000520988],−73.54
2,Clc1ccc2c(NCCCN(Cc3ccccc3)Cc3ccc4ccccc4c3)ccnc2c1 [SJ000361182],22.05
3,Cn1cc(CN(CCCNc2ccnc3cc(Cl)ccc23)Cc2ccccc2)c2ccccc21 [SJ000520439],−9.311
4,Clc1ccc2c(NCCCN(CCc3ccccc3)Cc3ccccc3)ccnc2c1 [SJ000357580],14.41
5,CCCN(CCCNc1ccnc2cc(C(F)(F)F)ccc12)Cc1ccccc1O [SJ000361257],26.5
6,CCC(C)CNCCCNc1ccnc2cc(Cl)ccc12 (stereo not drawn) [SJ000361104],9.822
7,CCCN(CCCNc1ccnc2cc(C(F)(F)F)ccc12)Cc1ccc(OC(F)(F)F)cc1 [SJ000520474],17.38
8,CCCN(CCCNc1ccnc2cc(Cl)ccc12)Cc1ccc([N+](=O)[O-])o1 [SJ000523047],9.575
9,CCCN(CCCNc1ccnc2cc(Cl)ccc12)Cc1ccc2[nH]ccc2c1 [SJ000522746],96.84
10,Fc1cccc(CN(CCCNc2ccnc3cc(Cl)ccc23)Cc2ccccc2)c1 [SJ000361176],20.36
11,Clc1ccc2c(NCCCN(Cc3ccccc3)Cc3ccc4c(c3)OCO4)ccnc2c1 [SJ000522719],9.001
12,CCCN(CCCNc1ccnc2cc(C(F)(F)F)ccc12)CC1CC1 [SJ000361266],48.15
13,CCCN(CCCNc1ccnc2cc(C(F)(F)F)ccc12)Cc1c[nH]c2ccccc12 [SJ000520468],16.16
14,FC(F)(F)c1ccc2c(NCCCNCC3CC3)ccnc2c1 [SJ000361108],22.81
15,O=[N+]([O-])c1ccccc1CN(CCCNc1ccnc2cc(Cl)ccc12)Cc1ccccc1 [SJ000361177],16.42
16,CCCN(CCCNc1ccnc2cc(C(F)(F)F)ccc12)Cc1ccccn1 [SJ000361252],15.16
17,CCCN(CCCNc1ccnc2cc(Cl)ccc12)Cc1ccc(OC(F)(F)F)cc1 [SJ000522999],22.74

# From US20240246941A1, “SUBSTITUTED 4-(3-AMINOPROP-1-YL)AMINOQUINOLINE ANALOGS AS MODULATORS OF MELANOMA-ASSOCIATED ANTIGEN 11 UBIQUITIN LIGASE” (ST. JUDE CHILDREN'S RESEARCH HOSPITAL, INC., priority 2020, published 2024)
